Laboratory results as given in PMC7827406, “Structure–Activity Relationship (SAR) Study of Spautin-1 to Entail the Discovery of Novel NEK4 Inhibitors” (International Journal of Molecular Sciences, 2021).
Read-outs that look alike come from different tables or passages of the source.

Experiments:
Test in all cases: biochemical
Design in all cases: Eurofins KinaseProfiler full panel at Km ATP, residual kinase activity (%) relative to DMSO
MRCKγ(h) = target: T1, MRCKγ(h) (Homo sapiens, UniProt Q6DT37)
T1 construct: gene CDC42BPG
T1 sequence (Q6DT37 whole entry): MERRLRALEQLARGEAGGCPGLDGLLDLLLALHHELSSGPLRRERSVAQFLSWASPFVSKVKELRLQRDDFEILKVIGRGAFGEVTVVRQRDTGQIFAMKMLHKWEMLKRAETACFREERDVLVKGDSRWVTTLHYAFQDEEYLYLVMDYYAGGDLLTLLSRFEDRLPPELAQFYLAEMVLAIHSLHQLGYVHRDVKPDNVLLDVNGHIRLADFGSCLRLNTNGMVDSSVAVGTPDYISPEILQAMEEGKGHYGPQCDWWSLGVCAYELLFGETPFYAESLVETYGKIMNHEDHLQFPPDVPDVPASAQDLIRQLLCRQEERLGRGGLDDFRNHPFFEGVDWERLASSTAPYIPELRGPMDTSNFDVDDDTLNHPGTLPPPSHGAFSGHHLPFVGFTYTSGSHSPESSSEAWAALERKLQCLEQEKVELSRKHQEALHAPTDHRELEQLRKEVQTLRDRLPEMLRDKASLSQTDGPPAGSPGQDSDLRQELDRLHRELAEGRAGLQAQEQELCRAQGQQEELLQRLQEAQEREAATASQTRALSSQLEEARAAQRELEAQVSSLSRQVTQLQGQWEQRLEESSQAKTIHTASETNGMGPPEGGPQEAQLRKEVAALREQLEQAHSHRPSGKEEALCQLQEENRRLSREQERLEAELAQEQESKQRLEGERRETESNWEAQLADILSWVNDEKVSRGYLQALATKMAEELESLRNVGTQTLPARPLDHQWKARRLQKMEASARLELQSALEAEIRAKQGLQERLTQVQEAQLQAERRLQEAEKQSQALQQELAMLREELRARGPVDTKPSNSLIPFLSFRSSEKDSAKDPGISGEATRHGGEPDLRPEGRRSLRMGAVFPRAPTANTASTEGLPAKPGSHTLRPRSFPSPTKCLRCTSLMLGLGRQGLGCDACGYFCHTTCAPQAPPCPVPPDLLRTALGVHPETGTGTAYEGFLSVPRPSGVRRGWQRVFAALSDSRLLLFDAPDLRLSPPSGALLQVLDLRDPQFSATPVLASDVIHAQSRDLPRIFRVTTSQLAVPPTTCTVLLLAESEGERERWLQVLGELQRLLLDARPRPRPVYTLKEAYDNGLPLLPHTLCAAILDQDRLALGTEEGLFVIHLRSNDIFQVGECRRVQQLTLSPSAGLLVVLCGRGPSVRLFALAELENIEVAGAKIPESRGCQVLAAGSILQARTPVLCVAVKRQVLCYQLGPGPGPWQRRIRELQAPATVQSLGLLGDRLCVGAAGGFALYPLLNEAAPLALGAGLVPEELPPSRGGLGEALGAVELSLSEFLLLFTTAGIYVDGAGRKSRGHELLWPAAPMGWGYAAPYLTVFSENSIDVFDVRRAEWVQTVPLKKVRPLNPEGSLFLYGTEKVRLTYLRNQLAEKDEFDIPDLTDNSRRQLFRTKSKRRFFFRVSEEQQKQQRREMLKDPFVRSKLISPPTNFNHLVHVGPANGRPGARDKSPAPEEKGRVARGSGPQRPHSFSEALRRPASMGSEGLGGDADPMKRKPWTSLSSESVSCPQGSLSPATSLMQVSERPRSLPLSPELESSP
In short: (§1)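 Two 10 µM single-concentration screens were run: a competition-binding screen, in which DNA-tagged kinase bound to immobilized ligands was quantified by qPCR, and a radiometric activity panel at Km ATP. Each is expressed as residual kinase activity (%).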

CaMKIIγ(h) = target: T2, CaMKIIγ(h) (Homo sapiens, UniProt Q13555)
T2 construct: gene CAMK2G
T2 sequence (Q13555 whole entry): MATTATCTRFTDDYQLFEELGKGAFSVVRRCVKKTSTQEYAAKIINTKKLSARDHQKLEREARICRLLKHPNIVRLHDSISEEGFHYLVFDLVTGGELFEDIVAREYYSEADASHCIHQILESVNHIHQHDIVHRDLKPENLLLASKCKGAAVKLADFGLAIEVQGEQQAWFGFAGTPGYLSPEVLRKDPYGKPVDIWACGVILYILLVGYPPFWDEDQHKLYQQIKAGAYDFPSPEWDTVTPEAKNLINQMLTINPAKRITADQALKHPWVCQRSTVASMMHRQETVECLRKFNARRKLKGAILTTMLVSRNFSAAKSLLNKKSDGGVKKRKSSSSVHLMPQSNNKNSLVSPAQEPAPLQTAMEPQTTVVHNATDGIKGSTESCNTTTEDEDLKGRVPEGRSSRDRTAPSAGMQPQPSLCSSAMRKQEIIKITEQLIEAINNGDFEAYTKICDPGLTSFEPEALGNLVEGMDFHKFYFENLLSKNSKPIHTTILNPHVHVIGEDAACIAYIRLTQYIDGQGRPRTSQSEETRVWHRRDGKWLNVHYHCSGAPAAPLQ
In short: as §1

SAPK4(h) = target: T3, SAPK4(h) (Homo sapiens, UniProt O15264)
T3 construct: gene MAPK13
T3 sequence (O15264 1-365): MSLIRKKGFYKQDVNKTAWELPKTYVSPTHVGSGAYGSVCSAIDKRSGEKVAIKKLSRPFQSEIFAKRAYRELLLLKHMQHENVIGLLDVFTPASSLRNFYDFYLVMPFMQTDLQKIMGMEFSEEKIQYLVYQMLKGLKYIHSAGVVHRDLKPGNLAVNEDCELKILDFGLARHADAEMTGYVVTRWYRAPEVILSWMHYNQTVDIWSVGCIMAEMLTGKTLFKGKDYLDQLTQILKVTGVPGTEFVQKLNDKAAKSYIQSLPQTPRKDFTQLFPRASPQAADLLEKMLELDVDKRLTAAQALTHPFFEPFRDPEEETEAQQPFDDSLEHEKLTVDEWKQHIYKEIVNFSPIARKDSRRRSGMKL
In short: as §1

TAK1(h) = target: T4, TAK1(h) (Homo sapiens, UniProt O43318)
T4 construct: gene MAP3K7
T4 sequence (O43318 1-606): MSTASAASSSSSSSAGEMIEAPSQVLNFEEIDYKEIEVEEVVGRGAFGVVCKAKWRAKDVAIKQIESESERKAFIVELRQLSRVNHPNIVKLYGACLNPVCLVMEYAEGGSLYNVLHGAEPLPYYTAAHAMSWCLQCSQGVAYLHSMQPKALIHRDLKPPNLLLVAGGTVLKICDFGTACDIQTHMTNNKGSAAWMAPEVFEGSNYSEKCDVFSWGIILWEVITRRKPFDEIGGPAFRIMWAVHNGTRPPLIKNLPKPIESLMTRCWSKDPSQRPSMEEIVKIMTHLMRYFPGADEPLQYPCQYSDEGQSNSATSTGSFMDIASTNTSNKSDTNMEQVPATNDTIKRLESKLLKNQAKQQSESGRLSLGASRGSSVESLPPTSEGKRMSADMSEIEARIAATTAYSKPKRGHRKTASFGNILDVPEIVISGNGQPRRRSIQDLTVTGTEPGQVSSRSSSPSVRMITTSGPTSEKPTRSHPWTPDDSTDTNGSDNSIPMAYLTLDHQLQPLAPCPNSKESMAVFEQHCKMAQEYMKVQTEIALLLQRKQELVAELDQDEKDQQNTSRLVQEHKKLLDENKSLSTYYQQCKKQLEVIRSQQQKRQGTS
In short: as §1

CaMKIδ(h) = target: T5, CaMKIδ(h) (Homo sapiens, UniProt Q8IU85)
T5 construct: gene CAMK1D
T5 sequence (Q8IU85 whole entry): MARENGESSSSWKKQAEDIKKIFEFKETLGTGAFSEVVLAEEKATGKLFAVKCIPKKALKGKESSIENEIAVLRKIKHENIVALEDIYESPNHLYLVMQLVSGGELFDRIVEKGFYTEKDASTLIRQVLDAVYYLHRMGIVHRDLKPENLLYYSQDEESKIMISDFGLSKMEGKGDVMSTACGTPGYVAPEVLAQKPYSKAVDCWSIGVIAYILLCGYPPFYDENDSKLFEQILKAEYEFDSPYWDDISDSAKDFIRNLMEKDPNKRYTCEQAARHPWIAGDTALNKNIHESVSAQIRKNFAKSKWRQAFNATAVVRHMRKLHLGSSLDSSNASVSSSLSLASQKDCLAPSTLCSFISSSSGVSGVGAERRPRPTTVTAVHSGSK
In short: as §1

DCAMKL3(h) = target: T6, DCAMKL3(h) (Homo sapiens, UniProt Q9C098)
T6 construct: gene DCLK3
T6 sequence (Q9C098 1-648): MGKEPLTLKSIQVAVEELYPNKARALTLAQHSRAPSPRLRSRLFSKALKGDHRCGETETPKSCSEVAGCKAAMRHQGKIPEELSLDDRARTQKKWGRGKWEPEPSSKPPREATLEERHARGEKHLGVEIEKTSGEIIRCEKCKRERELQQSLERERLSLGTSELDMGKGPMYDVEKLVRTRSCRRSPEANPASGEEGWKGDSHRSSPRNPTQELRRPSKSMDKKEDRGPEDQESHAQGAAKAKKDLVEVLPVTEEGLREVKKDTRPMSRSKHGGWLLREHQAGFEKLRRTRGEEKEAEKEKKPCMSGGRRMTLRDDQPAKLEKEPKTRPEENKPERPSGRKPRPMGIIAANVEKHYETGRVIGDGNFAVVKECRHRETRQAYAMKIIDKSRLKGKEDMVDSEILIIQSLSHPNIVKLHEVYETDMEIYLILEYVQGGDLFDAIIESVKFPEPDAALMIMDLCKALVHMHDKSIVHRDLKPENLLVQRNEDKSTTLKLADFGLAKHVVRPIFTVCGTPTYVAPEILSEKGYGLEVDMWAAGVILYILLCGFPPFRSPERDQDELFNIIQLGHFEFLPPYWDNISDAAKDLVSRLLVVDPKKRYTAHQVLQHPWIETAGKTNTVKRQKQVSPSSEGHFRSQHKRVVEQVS
In short: as §1

Yes(h) = target: T7, Yes(h) (Homo sapiens, UniProt P07947)
T7 construct: gene YES1
T7 sequence (P07947 whole entry): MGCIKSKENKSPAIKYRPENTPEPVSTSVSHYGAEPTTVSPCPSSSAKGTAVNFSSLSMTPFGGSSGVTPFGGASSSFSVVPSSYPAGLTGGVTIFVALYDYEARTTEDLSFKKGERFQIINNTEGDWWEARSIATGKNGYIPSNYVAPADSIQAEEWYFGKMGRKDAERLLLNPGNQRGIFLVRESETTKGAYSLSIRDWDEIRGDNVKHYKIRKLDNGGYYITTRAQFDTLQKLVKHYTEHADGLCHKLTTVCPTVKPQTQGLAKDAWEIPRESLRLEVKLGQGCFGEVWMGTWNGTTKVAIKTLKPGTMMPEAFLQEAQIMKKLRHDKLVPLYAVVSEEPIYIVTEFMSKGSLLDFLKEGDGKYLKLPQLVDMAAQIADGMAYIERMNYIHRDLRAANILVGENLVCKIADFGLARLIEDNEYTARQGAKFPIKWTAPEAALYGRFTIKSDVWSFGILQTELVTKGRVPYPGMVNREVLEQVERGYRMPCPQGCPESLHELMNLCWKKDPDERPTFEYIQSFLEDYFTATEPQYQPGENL
In short: as §1

[1] = read-out: Residual activity (%) Spautin-1 5aa
[2] = read-out: Residual activity (%) 5as
[3] = read-out: Residual activity (%) 5at
[4] = read-out: Residual activity (%) 5ay

Fc1ccc(CNc2ncnc3ccc(F)cc23)cc1 [5aa, 6-Fluoro-N-(4-fluorobenzyl)-4-Quinazolinamine]
remaining activity at 10 µM (MRCKγ(h); [1]): 105%
remaining activity at 10 µM (CaMKIIγ(h); [1]): 83%
remaining activity at 10 µM (SAPK4(h); [1]): 97%
remaining activity at 10 µM (TAK1(h); [1]): 74%
remaining activity at 10 µM (CaMKIδ(h); [1]): 91%
remaining activity at 10 µM (DCAMKL3(h); [1]): 102%
remaining activity at 10 µM (Yes(h); [1]): 92%

Fc1ccc(CCNc2ncnc3ccc(F)cc23)cc1 [5as, 6-Fluoro-N-[2-(4-Fluorophenyl)Ethyl]-4-Quinazolinamine]
remaining activity at 10 µM (MRCKγ(h); [2]): 98%
remaining activity at 10 µM (CaMKIIγ(h); [2]): 74%
remaining activity at 10 µM (SAPK4(h); [2]): 105%
remaining activity at 10 µM (TAK1(h); [2]): 83%
remaining activity at 10 µM (CaMKIδ(h); [2]): 90%
remaining activity at 10 µM (DCAMKL3(h); [2]): 108%
remaining activity at 10 µM (Yes(h); [2]): 86%

Fc1ccc2ncnc(NCCc3ccc(Cl)cc3)c2c1 [5at, N-[2-(4-Chlorophenyl)Ethyl]-6-Fluoro-4-Quinazolinamine]
remaining activity at 10 µM (MRCKγ(h); [3]): 102%
remaining activity at 10 µM (CaMKIIγ(h); [3]): 75%
remaining activity at 10 µM (SAPK4(h); [3]): 92%
remaining activity at 10 µM (TAK1(h); [3]): 82%
remaining activity at 10 µM (CaMKIδ(h); [3]): 92%
remaining activity at 10 µM (DCAMKL3(h); [3]): 107%
remaining activity at 10 µM (Yes(h); [3]): 84%

COc1ccc2ncnc(Nc3cccc(F)c3)c2c1 [5ay, N-(3-Fluorophenyl)-6-Methoxy-4-Quinazolinamine]
remaining activity at 10 µM (MRCKγ(h); [4]): 92%
remaining activity at 10 µM (CaMKIIγ(h); [4]): 41%
remaining activity at 10 µM (SAPK4(h); [4]): 105%
remaining activity at 10 µM (TAK1(h); [4]): 74%
remaining activity at 10 µM (CaMKIδ(h); [4]): 89%
remaining activity at 10 µM (DCAMKL3(h); [4]): 108%
remaining activity at 10 µM (Yes(h); [4]): 72%
